Test results: US8148531B2 (Chroma Therapeutics Ltd., priority 2005, dated 2012)

Legend:
[1] = biological target: Aurora-B (Homo sapiens, UniProt Q96GD4); assay: Aurora-B enzyme assay (identical protocol as Aurora-A); format: biochemical; conditions: IC50 range class; read-out: Inhibitor Activity vs Aurora-B
Experimental: The ability of compounds to inhibit Aurora-A activity was measured using a simple microplate assay for Aurora-A activity, also suitable for high-throughput screening. In brief, γ-^33P-ATP and Aurora-A were incubated in a myelin basic protein (MBP)-coated Flashplate® to generate a scintillation signal. The plates were formatted to contain the inhibitor, controls, positive control (staurosporin) and blanks. After incubation at 37° C. for 1 hour and a subsequent wash procedure, the plates were read on a TopCount-NXT™.
IC50 values were determined by non-linear regression analysis, after fitting the data point results to the equation for sigmoidal dose response with variable slope (% activity against log concentration of compound), using Graphpad Prism software.
The Aurora-B enzyme assay follows the identical protocol as Aurora-A.

[2] = tested on: HCT 116 cell line; assay: Cell inhibition assay (SRB cell viability), HCT 116; format: cell-based; conditions: Homo sapiens, IC50 range class, 72 h, read-out: Inhibitor Activity vs HCT 116 cell line
Experimental: (§1) The corresponding cancer cell lines (U937, HCT 116 and HUT) growing in log phase were harvested and seeded at 1000 cells/well (200 ul final volume) into 96-well tissue culture plates. Following 24 h of cell growth cells were treated with compounds (final concentration of 20 uM). Plates were then re-incubated for a further 72 h before a sulphorhodamine B (SRB) cell viability assay was conducted according to Skehan 1990 J Natl Canc Inst 82, 1107-1112.
(§2) Data were expressed as a percentage inhibition of the control, measured in the absence of inhibitor, as follows: — % inhibition=100−((S^i/S^o)×100) where S^i is the signal in the presence of inhibitor and S^o is the signal in the presence of DMSO.
(§3) IC50 values were determined by non-linear regression analysis, after fitting the results of eight data points to the equation for sigmoidal dose response with variable slope (% activity against log concentration of compound), using Graphpad Prism software.

[3] = tested on: HUT cell line; assay: Cell inhibition assay (SRB cell viability), HUT; format: cell-based; conditions: IC50 range class, 72 h, read-out: Inhibitor Activity vs HUT cell line
Experimental: as §1, §2, §3

[4] = tested on: U937 cell line; assay: Cell inhibition assay (SRB cell viability), U937; format: cell-based; conditions: Homo sapiens, U-937, IC50 range class, 72 h, read-out: Inhibitor Activity vs U937 cell line
Experimental: as §1, §2, §3

Chain of Aurora-B (Q96GD4 whole entry): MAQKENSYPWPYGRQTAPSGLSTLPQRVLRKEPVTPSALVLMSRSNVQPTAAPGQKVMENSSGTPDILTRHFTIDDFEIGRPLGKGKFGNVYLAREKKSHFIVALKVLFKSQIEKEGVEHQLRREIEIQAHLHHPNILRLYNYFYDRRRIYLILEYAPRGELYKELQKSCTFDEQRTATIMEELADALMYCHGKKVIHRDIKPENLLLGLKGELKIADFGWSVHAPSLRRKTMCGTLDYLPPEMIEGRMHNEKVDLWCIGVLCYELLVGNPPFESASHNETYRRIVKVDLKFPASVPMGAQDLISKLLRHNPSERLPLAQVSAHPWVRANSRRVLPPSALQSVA

SMILES	IC50 [1] [nM]	IC50 [2] [nM]	IC50 [4] [nM]	IC50 [3] [nM]
COc1cc2c(Nc3cnn(CC(=O)Nc4ccccc4)c3)ccnc2cc1OCC[C@H](N)C(=O)O [Example 23, (S)-2-Amino-4-[6-methoxy-4-(1-phenylcarbamoylmethyl-1H-pyrazol-4-ylamino)-quinolin-7-yloxy]-butyric acid]	> 5000			
COc1cc2nccc(Oc3ccc(NC(=O)c4ccccc4)cc3)c2cc1OCC[C@H](N)C(=O)OC1CCCC1 [Example 35, (S)-2-Amino-4-[4-(4-benzoylamino-phenoxy)-7-methoxy-quinolin-6-yloxy]-butyric acid cyclopentyl ester]	> 5000	1000 to 5000	< 1000	1000 to 5000
COc1cc2c(Oc3ccc(NC(=O)c4cccc(F)c4)cc3)ccnc2cc1OCC[C@H](N)C(=O)O [Example 56, (S)-2-Amino-4-{4-[4-(3-fluoro-benzoylamino)-phenoxy]-6-methoxy-quinolin-7-yloxy}-butyric acid]	< 2000			
COc1ccc(C(=O)Nc2ccc(Oc3ccnc4cc(OCC[C@H](N)C(=O)OC5CCCC5)c(OC)cc34)cc2)cc1 [Example 57, (S)-2-Amino-4-{6-methoxy-4-[4-(4-methoxy-benzoylamino)-phenoxy]-quinolin-7-yloxy}-butyric acid cyclopentyl ester]	2000 to 5000	1000 to 5000	< 1000	1000 to 5000
COc1cc2c(Oc3ccc(NC(=O)c4ccc(OC(F)(F)F)cc4)cc3)ccnc2cc1OCC[C@H](N)C(=O)O [Example 71, (S)-2-Amino-4-{6-methoxy-4-[4-(4-trifluoromethoxy-benzoylamino)-phenoxy]-quinolin-7-yloxy}-butyric acid]	2000 to 5000			
COc1cc2c(Oc3ccc(NS(=O)(=O)c4ccccc4)cc3)ccnc2cc1OCC[C@H](N)C(=O)O [Example 74, (S)-2-Amino-4-[4-(4-benzenesulfonylamino-phenoxy)-6-methoxy-quinolin-7-yloxy]-butyric acid]	2000 to 5000			
COc1cc2c(Oc3ccc(-c4noc(-c5ccccc5)n4)cc3)ccnc2cc1OCC[C@@H](N)C(=O)OC1CCCC1 [Example 107, (R)-2-Amino-4-{6-methoxy-4-[4-(5-phenyl-[1,2,4]oxadiazol-3-yl)-phenoxy]-quinolin-7-yloxy}-butyric acid cyclopentyl ester]		> 5000	> 5000	> 5000
COc1cc2c(Oc3ccc(NC(=O)c4ccccc4)cc3OC)ccnc2cc1OCC[C@H](N)C(=O)OC1CCCC1 [Example 132, (S)-2-Amino-4-[4-(4-benzoylamino-2-methoxy-phenoxy)-6-methoxy-quinolin-7-yloxy]-butyric acid cyclopentyl ester]		1000 to 5000	< 1000	1000 to 5000
COc1cc2c(Oc3ccc(NC(=O)c4ccccc4)cn3)ccnc2cc1OCC[C@H](N)C(=O)OC1CCCC1 [Example 134]		< 1000	< 1000	< 1000
COc1cc2c(Oc3ccc(NC(=O)c4ccccc4)cc3)ccnc2cc1OC[C@@H]1CCCN1CC[C@H](N)C(=O)OC1CCCC1 [Example 135, (S)-2-Amino-4-{(S)-2-[4-(4-benzoylamino-phenoxy)-6-methoxy-quinolin-7-yloxymethyl]-pyrrolidin-1-yl}-butyric acid cyclopentyl ester]		1000 to 5000	< 1000	1000 to 5000
COc1cc2c(Oc3ccc(NC(=O)c4ccccc4)cc3)ccnc2cc1OCC1CCN(CC[C@H](N)C(=O)OC2CCCC2)CC1 [Example 136, (S)-2-Amino-4-{4-[4-(4-benzoylamino-phenoxy)-6-methoxy-quinolin-7-yloxymethyl]-piperidin-1-yl}-butyric acid cyclopentyl ester]		< 1000	< 1000	< 1000
COc1cc2c(Oc3ccc(NC(=O)c4ccccc4)cc3)ccnc2cc1OC1CCN(CC[C@H](N)C(=O)OC2CCCC2)C1 (stereo partly drawn) [Example 137, (S)-2-Amino-4-{3-[4-(4-benzoylamino-phenoxy)-6-methoxy-quinolin-7-yloxy]-pyrrolidin-1-yl}-butyric acid cyclopentyl ester]		1000 to 5000	< 1000	< 1000
COc1cc2c(Oc3ccc(NCc4ccccc4)cc3)ccnc2cc1OCC[C@H](N)C(=O)OC1CCCC1 [Example 138, (S)-2-Amino-4-[4-(4-benzylamino-phenoxy)-6-methoxy-quinolin-7-yloxy]-butyric acid cyclopentyl ester]		1000 to 5000	< 1000	< 1000
COc1cc2c(Oc3ccc(CC(=O)c4ccccc4)cc3)ccnc2cc1OCC[C@H](N)C(=O)OC1CCCC1 [Example 140, (S)-2-Amino-4-{6-methoxy-4-[4-(2-oxo-2-phenyl-ethyl)-phenoxy]-quinolin-7-yloxy}-butyric acid cyclopentyl ester]		1000 to 5000	< 1000	< 1000
COc1cc2c(Oc3ccc(CNC(=O)c4ccccc4)cc3)ccnc2cc1OCC[C@H](N)C(=O)OC1CCCC1 [Example 141, (S)-2-Amino-4-{4-[4-(benzoylamino-methyl)-phenoxy]-6-methoxy-quinolin-7-yloxy}-butyric acid cyclopentyl ester]		< 1000	< 1000	< 1000
COc1cc2c(Nc3cc(C)[nH]n3)nc(Sc3ccccc3)nc2cc1OCC[C@H](N)C(=O)OC1CCCC1 [Example 143, (S)-2-Amino-4-[6-methoxy-4-(5-methyl-1H-pyrazol-3-ylamino)-2-phenylsulfanyl-quinazolin-7-yloxy]-butyric acid cyclopentyl ester]		> 5000	1000 to 5000	1000 to 5000

The next lines start with results.

IC50 [1] [nM]	IC50 [2] [nM]	IC50 [4] [nM]	SMILES	IC50 [3] [nM]
2000 to 5000	< 1000	< 1000	COc1cc2c(Oc3ccc(NC(=O)c4ccccc4)cc3)ccnc2cc1OCC[C@H](NC(C)=O)C(=O)OC1CCCC1 [Example 42, (S)-2-Acetylamino-4-[4-(4-benzoylamino-phenoxy)-6-methoxy-quinolin-7-yloxy]-butyric acid cyclopentyl ester]	< 1000
< 2000	< 1000	< 1000	COc1cc2c(Oc3ccc(NC(=O)c4ccc(C(F)(F)F)cc4)cc3)ccnc2cc1OCC[C@H](N)C(=O)OC1CCCC1 [Example 53, (S)-2-Amino-4-{6-methoxy-4-[4-(4-trifluoromethyl-benzoylamino)-phenoxy]-quinolin-7-yloxy}-butyric acid cyclopentyl ester]	< 1000
	< 1000	< 1000	COc1cc2c(Oc3ccc(NC(=O)Nc4ccc(C(F)(F)F)cc4)cc3F)ccnc2cc1OCC[C@@H](N)C(=O)OC1CCCC1 [Example 108, (R)-2-Amino-4-(4-{2-fluoro-4-[3-(4-trifluoromethyl-phenyl)-ureido]-phenoxy}-6-methoxy-quinolin-7-yloxy)-butyric acid cyclopentyl ester]	< 1000
	< 1000	< 1000	COc1cc2c(Oc3ccc(NC(=O)Nc4ccc(C(F)(F)F)cc4)cc3)ccnc2cc1OCCC[C@H](N)C(=O)OC1CCCC1 [Example 113, (S)-2-Amino-5-(6-methoxy-4-{4-[3-(4-trifluoromethyl-phenyl)-ureido]-phenoxy}-quinolin-7-yloxy)-pentanoic acid cyclopentyl ester]	< 1000
	< 1000	< 1000	COc1cc2c(Sc3ccc(NC(=O)Nc4ccc(C(F)(F)F)cc4)cc3)ccnc2cc1OCCC[C@@H](N)C(=O)OC1CCCC1 [Example 121, (R)-2-Amino-5-(6-methoxy-4-{4-[3-(4-trifluoromethyl-phenyl)-ureido]-phenylsulfanyl}-quinolin-7-yloxy)-pentanoic acid cyclopentyl ester]	< 1000
	< 1000	< 1000	COc1cc2c(Oc3ccc(NC(=O)Nc4ccc(C(F)(F)F)cc4)cc3F)ccnc2cc1OCCC[C@@H](N)C(=O)OC1CCCC1 [Example 123, (R)-2-Amino-5-(4-{2-fluoro-4-[3-(4-trifluoromethyl-phenyl)-ureido]-phenoxy}-6-methoxy-quinolin-7-yloxy)-pentanoic acid cyclopentyl ester]	< 1000
	< 1000	< 1000	COc1cc2c(Oc3ccc(NC(=O)c4ccc(C(F)(F)F)cc4)cc3F)ccnc2cc1OCC[C@H](N)C(=O)OC1CCCC1 [Example 127, (S)-2-Amino-4-{4-[2-fluoro-4-(4-trifluoromethyl-benzoylamino)-phenoxy]-6-methoxy-quinolin-7-yloxy}-butyric acid cyclopentyl ester]	< 1000
	< 1000	< 1000	COc1cc2c(Oc3ccc(NC(=O)c4ccccc4)c(F)c3)ccnc2cc1OCC[C@H](N)C(=O)OC1CCCC1 [Example 130, (S)-2-Amino-4-[4-(4-benzoylamino-3-fluoro-phenoxy)-6-methoxy-quinolin-7-yloxy]-butyric acid cyclopentyl ester]	< 1000
